From US20100292214A1, “Compounds with Antiparasitic Activity, Applications thereof to the Treatment of Infectious Diseases Caused by Apicomplexans” (commissariat a l'Energie Atomique, priority 2007, published 2010) come the findings set out here.

Counter-ions that a name gives are not always drawn.

One experiment relates to asynchronous 3D7 chloroquine-sensitive P. falciparum infected red blood cells. Kind of experiment: Labeled hypoxanthine incorporation assay (in vitro anti-malarial activity). Particulars: Plasmodium falciparum, 3D7, Erythrocyte, 3D7 chloroquine-sensitive strain, infected RBC, 48 h contact, [3H]-hypoxanthine incorporation; two independent experiments in duplicates; read-out: IC50 assessed on Plasmodium Falciparum. The format is cell-based.
On to `CC(CCOC(=O)N1CCC(n2c(=O)[nH]c3ccccc32)CC1)N(Cc1ccccc1)Cc1ccccc1` (stereo not shown) [Compound 110, 3-(dibenzylamino)butyl 4-(1,2-dihydro-2-oxobenzo[d]imidazol-3-yl)piperidine-1-carboxylate], for which the IC50 (in general, the midpoint of a concentration-inhibition curve) turned out to be 1.48 µM.

As to `COc1ccc(S(=O)(=O)n2c(=O)n(C3CCN(C(=O)OC[C@H](C)N(Cc4ccccc4)Cc4ccccc4)CC3)c3ccccc32)cc1` [Compound 57, (S)-2-(dibenzylamino)propyl 4-(3-(4-methoxyphenylsulfonyl)-2-oxo-2,3-dihydro-1H-benzo[d]imidazol-1-yl)piperidine-1-carboxylate], the IC50 stood at 0.41 µM.

`C[C@@H](COC(=O)N1CCC(n2c(=O)[nH]c3ccccc32)CC1)N(Cc1ccccc1)Cc1ccnc2ccccc12` [Compound 133, (S)-2-(benzyl(quinolin-4-ylmethyl)amino)propyl 4-(2-oxo-2,3-dihydro-1H-benzo[d]imidazol-1-yl)piperidine-1-carboxylate hydrochloride]: the IC50 is 2.55 µM. `O=C(OCCN(C/C=C/c1ccccc1)Cc1ccccc1)N1CCC(n2c(=O)[nH]c3ccccc32)CC1` [Compound 104, (E)-2-(benzyl(cinnamyl)amino)ethyl 4-(2-oxo-2,3-dihydro-1H-benzo[d]imidazol-1-yl)piperidine-1-carboxylate]: the IC50 turned out to be 4.97 µM. In the case of `C[C@@H](COC(=O)N1CCC(N(c2ccccc2)S(=O)(=O)c2ccc3ccccc3c2)CC1)N(Cc1ccccc1)Cc1ccccc1` [Compound 171, (S)-2-(dibenzylamino)propyl 4-(N-phenyl-naphthalen-2-ylsulfonamido)piperidine-1-carboxylate], the IC50 stood at 4.43 µM. As to `O=C(OCCN(Cc1ccccc1)Cc1c(F)cccc1F)N1CCC(n2c(=O)[nH]c3ccccc32)CC1` [Compound 101, 2-(benzyl(2,6-difluorobenzyl)amino)ethyl 4-(2-oxo-2,3-dihydro-1H-benzo[d]imidazol-1-yl)piperidine-1-carboxylate], the IC50 came out at 5.37 µM. Consider `CSc1ccccc1NC1CCN(C(=O)OC[C@H](Cc2ccccc2)N(Cc2ccccc2)Cc2ccccc2)CC1` [Compound 176, (S)-2-(dibenzylamino)-3-phenylpropyl 4-(2-(methylthio)phenylamino)piperidine-1-carboxylate], for which the IC50 amounted to 2.65 µM. Regarding `O=C(OCCCN(Cc1ccccc1)Cc1ccc(F)cc1)N1CCC(n2c(=O)[nH]c3ccccc32)CC1` [Compound 147, 3-(benzyl(4-fluorobenzyl)amino)propyl 4-(2-oxo-2,3-dihydro-1H-benzo[d]imidazol-1-yl)piperidine-1-carboxylate hydrochloride], the IC50 was 2.22 µM.

Regarding `COc1ccc(CN(CCCOC(=O)N2CCC(n3c(=O)[nH]c4ccccc43)CC2)Cc2ccccc2)cc1` [Compound 117, 3-(benzyl(4-methoxybenzyl)amino)propyl 4-(2-oxo-2,3-dihydro-1H-benzo[d]imidazol-1-yl)piperidine-1-carboxylate hydrochloride], the IC50 is 1.87 µM.

`CC(C)(C)C(COC(=O)N1CCC(n2c(=O)[nH]c3ccccc32)CC1)N(Cc1ccccc1)Cc1ccccc1` (stereo not shown) [Compound 109, 2-(dibenzylamino)-3,3-dimethylbutyl 4-(1,2-dihydro-2-oxobenzo[d]imidazol-3-yl)piperidine-1-carboxylate]: the IC50 was found to be 2.4 µM.

The next experiment relates to Toxoplasma gondii RH-β1 strain. Kind of experiment: microbe, parasite or virus in culture. The format is cell-based. Particulars: Toxoplasma gondii, read-out: IC50 assessed on Toxoplama Gondii.
As to `CC(CCOC(=O)N1CCC(n2c(=O)[nH]c3ccccc32)CC1)N(Cc1ccccc1)Cc1ccccc1` (stereo not shown) [Compound 110, 3-(dibenzylamino)butyl 4-(1,2-dihydro-2-oxobenzo[d]imidazol-3-yl)piperidine-1-carboxylate], the IC50 came to 3.6 µM. Same read-out and setting: with `COc1ccc(S(=O)(=O)n2c(=O)n(C3CCN(C(=O)OC[C@H](C)N(Cc4ccccc4)Cc4ccccc4)CC3)c3ccccc32)cc1` [Compound 57, (S)-2-(dibenzylamino)propyl 4-(3-(4-methoxyphenylsulfonyl)-2-oxo-2,3-dihydro-1H-benzo[d]imidazol-1-yl)piperidine-1-carboxylate] the figure was 1.75 µM; with `C[C@@H](COC(=O)N1CCC(n2c(=O)[nH]c3ccccc32)CC1)N(Cc1ccccc1)Cc1ccnc2ccccc12` [Compound 133, (S)-2-(benzyl(quinolin-4-ylmethyl)amino)propyl 4-(2-oxo-2,3-dihydro-1H-benzo[d]imidazol-1-yl)piperidine-1-carboxylate hydrochloride], 1 µM.

Turning to `CC(C)C[C@@H](COC(=O)N1CCC(n2c(=O)[nH]c3ccccc32)CC1)NCc1ccccc1` [Compound 189, (S)-2-(benzylamino)-4-methylpentyl 4-(2-oxo-2,3-dihydro-1H-benzo[d]imidazol-1-yl)piperidine-1-carboxylate], the IC50 was 2.3 µM. On to `CC(C)(C)OC(=O)N(CCOC(=O)N1CCC(n2c(=O)[nH]c3ccccc32)CC1)Cc1ccccc1` [Compound 185, 2-(benzyl(tert-butoxycarbonyl)amino)ethyl 4-(2-oxo-2,3-dihydro-1H-benzo[d]imidazol-1-yl)piperidine-1-carboxylate], for which the IC50 amounted to 2 µM. Consider `O=C(OCCOCc1ccccc1)N1CCC(n2c(=O)[nH]c3ccccc32)CC1` [Compound 31, 2-(benzyloxy)ethyl 4-(1,2-dihydro-2-oxobenzo[d]imidazol-3-yl)piperidine-1-carboxylate], for which the IC50 came out at 0.5 µM.

`CN(C)CCOC(=O)N1CCC(n2c(=O)[nH]c3ccccc32)CC1` [Compound 35, 2-(dimethylamino)ethyl 4-(1,2-dihydro-2-oxobenzo[d]imidazol-3-yl)piperidine-1-carboxylate]: the IC50 came out at 4 µM.

With `C[C@@H](COC(=O)N1CCC(n2c(=O)[nH]c3ccccc32)CC1)N(Cc1ccccc1)Cc1ccc(F)cc1` [Compound 184, (S)-2-(benzyl(4-fluorobenzyl)amino)propyl 4-(2-oxo-2,3-dihydro-1H-benzo[d]imidazol-1-yl)piperidine-1-carboxylate hydrochloride], the IC50 amounted to 3.3 µM. In the case of `O=C(OCCCN(Cc1ccccc1)Cc1cccc(OCc2ccccc2)c1)N1CCC(n2c(=O)[nH]c3ccccc32)CC1` [Compound 188, 3-(benzyl(3-(benzyloxy)benzyl)amino)propyl 4-(2-oxo-2,3-dihydro-1H-benzo[d]imidazol-1-yl)piperidine-1-carboxylate], the IC50 was 3 µM. Still for that read-out and setting: as for `O=C(OC[C@H](Cc1ccccc1)N(Cc1ccccc1)Cc1ccccc1)N1CCC(N(c2ccccc2)S(=O)(=O)c2ccc(C(F)(F)F)cc2)CC1` [Compound 183, (S)-2-(dibenzylamino)-3-phenylpropyl 4-(N-phenyl-4-(trifluoromethyl)phenylsulfonamido)piperidine-1-carboxylate], the figure is 3.1 µM. Turning to `C[C@@H](COC(=O)N1CCC(c2cccc3[nH]c(=O)[nH]c23)CC1)N(Cc1ccccc1)Cc1ccccc1` [Compound 179, (S)-2-(dibenzylamino)propyl 4-(2-oxo-2,3-dihydro-1H-benzo[d]imidazol-4-yl)piperidine-1-carboxylate], the IC50 amounted to 3.25 µM. In the case of `O=C(OCC(Cc1ccccc1)NCc1ccccc1)N1CCC(n2c(=O)[nH]c3ccccc32)CC1` (stereo not shown) [Compound 190, 2-(benzylamino)-3-phenylpropyl 4-(2-oxo-2,3-dihydro-1H-benzo[d]imidazol-1-yl)piperidine-1-carboxylate], the IC50 worked out at 0.8 µM. `CCN(CC)CCOC(=O)N1CCC(n2c(=O)[nH]c3ccccc32)CC1` [Compound 39, 2-(diethylamino)ethyl 4-(1,2-dihydro-2-oxobenzo[d]imidazol-3-yl)piperidine-1-carboxylate]: the IC50 was found to be 12 µM. As for `O=C(OCCCCCCN(Cc1ccccc1)Cc1ccccc1)N1CCC(n2c(=O)[nH]c3ccccc32)CC1` [Compound 180, 6-(dibenzylamino)hexyl 4-(1,2-dihydro-2-oxobenzo[d]imidazol-3-yl)piperidine-1-carboxylate], the IC50 turned out to be 2 µM. In the case of `COC(=O)c1ccc(CN(CCOC(=O)N2CCC(n3c(=O)[nH]c4ccccc43)CC2)Cc2ccccc2)cc1` [Compound 187, 2-(benzyl(4-(methoxycarbonyl)benzyl)amino)ethyl 4-(2-oxo-2,3-dihydro-1H-benzo[d]imidazol-1-yl)piperidine-1-carboxylate], the IC50 was determined as 2.2 µM.

With `CC(C)N(CCOC(=O)N1CCC(n2c(=O)[nH]c3ccccc32)CC1)C(C)C` [Compound 34, 2-(diisopropylamino)ethyl 4-(1,2-dihydro-2-oxobenzo[d]imidazol-3-yl)piperidine-1-carboxylate], the IC50 was determined as 27 µM. For the molecule `O=C(Oc1ccc(N(Cc2ccccc2)Cc2ccccc2)cc1)N1CCC(n2c(=O)[nH]c3ccccc32)CC1` [Compound 178, 4-(dibenzylamino)phenyl 4-(1,2-dihydro-2-oxobenzo[d]imidazol-3-yl)piperidine-1-carboxylate], the IC50 was 1.3 µM. Turning to `Cn1c(CN(CCCOC(=O)N2CCC(n3c(=O)[nH]c4ccccc43)CC2)Cc2ccccc2)cc2ccccc21` [Compound 186, 3-(benzyl((1-methyl-1H-indol-2-yl)methyl)amino)propyl 4-(2-oxo-2,3-dihydro-1H-benzo[d]imidazol-1-yl)piperidine-1-carboxylate hydrochloride], the IC50 was 4.8 µM.

Regarding `CN(CCOC(=O)N1CCC(n2c(=O)[nH]c3ccccc32)CC1)Cc1ccccc1` [Compound 27, 2-(N-benzyl-N-methylamino)ethyl 4-(1,2-dihydro-2-oxobenzo[d]imidazol-3-yl)piperidine-1-carboxylate], the IC50 was 2 µM. Take `O=C(OCC1CCCCN1Cc1ccccc1)N1CCC(n2c(=O)[nH]c3ccccc32)CC1` (stereo not shown) [Compound 182, (1-benzylpiperidin-2-yl)methyl 4-(1,2-dihydro-2-oxobenzo[d]imidazol-3-yl)piperidine-1-carboxylate]: the IC50 came to 5 µM.

With `C[C@@H](COC(=O)N1CCC(n2c(=O)n(C(=O)C(C)(C)C)c3ccccc32)CC1)N(Cc1ccccc1)Cc1ccccc1` [Compound 66, (S)-2-(dibenzylamino)propyl 4-(1,2-dihydro-2-oxo-1-(pivaloyl)benzo[d]imidazol-3-yl)piperidine-1-carboxylate], the IC50 came out at 2.8 µM.

Consider `O=C(OC1CCCN(Cc2ccccc2)C1)N1CCC(n2c(=O)[nH]c3ccccc32)CC1` (stereo not shown) [Compound 33, 1-benzylpiperidin-3-yl 4-(1,2-dihydro-2-oxobenzo[d]imidazol-3-yl)piperidine-1-carboxylate], for which the IC50 was 0.45 µM.

For `O=C(OCc1ccccc1)N1CCC(n2c(=O)[nH]c3ccccc32)CC1` [Compound 181, Benzyl 4-(1,2-dihydro-2-oxobenzo[d]imidazol-3-yl)piperidine-1-carboxylate], the IC50 was 0.3 µM. Same read-out and setting: as for `C[C@@H](COC(=O)N1CCC(n2c(N)nc3ccccc32)CC1)N(Cc1ccccc1)Cc1ccccc1` [Compound 177, (S)-2-(dibenzylamino)propyl 4-(2-amino-1H-benzo[d]imidazol-1-yl)piperidine-1-carboxylate], the figure is 3.8 µM.
